Tests used:
Format in all cases: biochemical
[1] = molecular target: T1, Cathepsin B from human placenta (Homo sapiens, UniProt P07858); assay: Inhibition of cathepsin B, Z-Arg-Arg-AMC fluorescence progress curves; conditions: for kobs /[I]* (approximate second-order inactivation constant): values marked *
T1 construct: Cathepsin B from human placenta, obtained from Sigma; purchased Sigma; host or cells: human placenta (tissue)
Procedure: Stock solutions of the various inhibitors (10 mM) were made in DMF; dilutions were made in the same solvent. Cathepsin B from human placenta, obtained from Sigma, was approximately 10 nM in the assay. The assay buffer contained 50 mM phosphate at pH 6.2, 2.5 mM dithiothreitol (DTT), and 2.5 mM ethylenediaminetetraacetic acid (EDTA). The substrate for cathepsin B was 50 μM Z-Arg-Arg-AMC (carbobenzyloxyarginylarginylaminomethylcoumarin). The assays were initiated at 25° C. by addition of enzyme to 2 mL of assay buffer containing the substrate and the various inhibitors (30-0.001 (μM). The increase in fluorescence at 460 nm with excitation at 380 nm was followed with time, and the assay was linear throughout the range observed. Inactivation of cathepsin B was indicated by a downward curve in the increase in fluorescence with time. In the absence of inhibitors, the enzymatic production of free AMC was linear throughout the time course of inactivation examined. Data points were collected over at least 3 half-times of inactivation, and in duplicate. The inhibition progress curves were analyzed using non-linear curve fitting software to compute the kobs values. Approximate second-order inactivation constants (kobs /[I]) were calculated for all compounds. For selected inhibitors, plots of 1/[I] vs. 1/kobs yielded the true constants kirr, KI, and kirr /KI, and were corrected for the presence of substrate by dividing KI (app.) by {1+[S]/Km }.

Cloned cathepsin S = molecular target: T2, Cloned cathepsin S (Homo sapiens, UniProt P25774); assay: Inhibition of cathepsin S, Z-Val-Val-Arg-AMC fluorescence progress curves; conditions: for kobs /[I]* (approximate second-order inactivation constant): values marked *
T2 construct: made in house
Procedure: Stock solutions of the various inhibitors (10 mM) were made in DMF; dilutions were made in the same solvent. Cloned cathepsin S, (see Bromme et al., J. Biol. Chem. 268(&): 4832-4838 (1993)) was less than 1 nM in the assay. The assay buffer contained 100 mM phosphate at pH 6.5, 0.01% Triton, 2.5 mM dithiothreitol (DTT), and 2.5 mM ethylenediaminetetraacetic acid (EDTA). The substrate for cathepsin S was 10 μM Z-Val-Val-Arg-AMC (carbobenzyloxyvalinylvalinylarginylaminomethylcoumarin). The assays were initiated at 25° C. by addition of enzyme to 2 mL of assay buffer containing the substrate and the various inhibitors (30-0.001 μM). The increase in fluorescence at 460 nm with excitation at 380 nm was followed with time. Inactivation of cathepsin S was indicated by a downward curve in the increase in fluorescence with time. In the absence of inhibitors, the enzymatic production of free AMC was linear throughout the time course of inactivation examined. Data points were collected over at least 3 half-times of inactivation. The inhibition progress curves were analyzed using non-linear curve fitting software to compute the kobs values. Approximate second-order inactivation constants (kobs /[I]) were calculated for all compounds. For selected inhibitors, plots of 1/[I] vs. 1/kobs yielded the true constants kirr, KI, and kirr /KI, and were corrected for the presence of substrate by dividing KI (app.) by {1+[S]/Km}.

cruzain, from T. cruzi = cruzain, from T. cruzi (Trypanosoma cruzi, UniProt P25779); assay: Inhibition of cruzain, as for cathepsin L
Procedure: (§1) Stock solutions of the various inhibitors (10 mM) were made in DMF; dilutions were made in the same solvent. Cathepsin L from rat liver, (see Mason et al., Biochem. J. 226:233-241 (1985)) was approximately 1 nM in the assay. The assay buffer contained 50 mM phosphate at pH 6:2, 2.5 mM dithiothreitol (DTT), and 2.5 mM ethylenediaminetetraacetic acid (EDTA). The substrate for cathepsin L was 5 μM Z-Phe-Arg-AMC (carbobenzyloxyphenylalanylarginylaminomethylcoumarin). The assays were initiated at 25° C. by addition of enzyme to 2 mL of assay buffer containing the substrate and the various inhibitors (30-0.001 μM). The increase in fluorescence at 460 nm with excitation at 380 nm was followed with time. Inactivation of cathepsin L was indicated by a downward curve in the increase in fluorescence with time. In the absence of inhibitors, the enzymatic production of free AMC was linear throughout the time course of inactivation examined. Data points were collected over at least 3 half-times of inactivation. The inhibition progress curves were analyzed using non-linear curve fitting software to compute the kobs values. Approximate second-order inactivation constants (kobs /[I]) were calculated for all compounds. For selected inhibitors, plots of 1/[I] vs. 1/kobs yielded the true constants kirr, KI, and kirr/KI and were corrected for the presence of substrate by dividing KI (app.) by (1+[S]/Km).
Inhibition of cruzain, from T. cruzi, (see Eakin et at., J. Biol. Chem. 268(9): 6115-6118 (1993)) proceeded exactly as for cathepsin L, outlined above, using an enzyme concentration of 1 nM.

[2] = molecular target: T3, Cathepsin L from rat liver (Rattus norvegicus, UniProt P07154); assay: Inhibition of cathepsin L, Z-Phe-Arg-AMC fluorescence progress curves; conditions: for kobs /[I]* (approximate second-order inactivation constant): values marked *; for kobs /[I]* (approximate second-order inactivation constant) / k/KI (kirr/KI): 25° C., pH 6.2; for Ki: corrected for substrate; for k/KI (kirr/KI): values without asterisk
T3 construct: Cathepsin L from rat liver; from tissue; host or cells: rat liver
Procedure: as §1

T2 sequence (P25774 115-331): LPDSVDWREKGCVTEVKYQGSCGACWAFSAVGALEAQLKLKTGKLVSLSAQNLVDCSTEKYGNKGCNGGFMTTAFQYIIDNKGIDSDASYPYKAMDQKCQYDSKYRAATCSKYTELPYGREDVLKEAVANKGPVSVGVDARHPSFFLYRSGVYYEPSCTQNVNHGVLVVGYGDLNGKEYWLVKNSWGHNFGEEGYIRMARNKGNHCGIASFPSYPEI
T3 sequence (P07154 114-288 limits assumed): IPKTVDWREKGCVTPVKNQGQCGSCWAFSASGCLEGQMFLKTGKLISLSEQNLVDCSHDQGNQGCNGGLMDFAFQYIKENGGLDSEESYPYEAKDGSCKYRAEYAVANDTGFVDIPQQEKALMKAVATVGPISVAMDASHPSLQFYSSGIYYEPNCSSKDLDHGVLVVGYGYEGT
T3 sequence (P07154 291-334 limits assumed): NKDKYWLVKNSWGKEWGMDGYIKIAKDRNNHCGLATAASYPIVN
Sequence of cruzain, from T. cruzi (P25779 123-337 limits assumed): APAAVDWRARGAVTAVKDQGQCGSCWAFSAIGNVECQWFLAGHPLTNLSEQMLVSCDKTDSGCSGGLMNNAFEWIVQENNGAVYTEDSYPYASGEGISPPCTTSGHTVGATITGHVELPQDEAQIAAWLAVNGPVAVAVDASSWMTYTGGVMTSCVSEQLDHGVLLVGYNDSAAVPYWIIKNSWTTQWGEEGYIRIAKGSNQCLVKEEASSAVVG

O=C(/C=C/[C@H](CCc1ccccc1)NC(=O)C(Cc1ccccc1)NC(=O)N1CCOCC1)NC(Cc1ccccc1)C(=O)O (stereo partly drawn) [Mu-Phe-HphVAM-PheOH, (S)-(E)-(N-phenylalanine)-4-(4-morpholinecarbonylphenylalanyl)amino-6-phenyl-2-hexenamide]
kobs /[I]* (approximate second-order inactivation constant) ([1]; 25° C., pH 6.2): 600 M⁻¹ s⁻¹
kobs /[I]* (approximate second-order inactivation constant) (Cloned cathepsin S; 25° C., pH 6.5): 10,600 M^-1 sec^-1

O=C(NCCCC[C@@H](/C=C/S(=O)(=O)c1ccccc1)NC(=O)[C@H](Cc1ccccc1)NC(=O)N1CCOCC1)c1ccccc1 [Mu-Phe-Lys(Bz)VSPh, (S)-(E)-3-(4-morpholinecarbonylphenylalanyl)amino-7-benzoylamino-1-phenylsulfonyl-1-heptene]
kobs /[I]* (approximate second-order inactivation constant) (cruzain, from T. cruzi; values marked *): 60,000 M^-1 sec^-1
kobs /[I]* (approximate second-order inactivation constant) [2]: 210,000 M^-1 sec^-1
kobs /[I]* (approximate second-order inactivation constant) (Cloned cathepsin S; 25° C., pH 6.5): 2,500,000 M^-1 sec^-1

O=C(NCCCC[C@@H](C=C(F)S(=O)(=O)c1ccccc1)NC(=O)[C@H](Cc1ccccc1)NC(=O)N1CCOCC1)OCc1ccccc1 [Mu-Phe-Lys(Z)fVSPh, (S)-7-(benzyloxycarbonyl)amino-3-(4-morpholinecarbonylphenylalanyl)amino-1-fluoro-1-phenylsulfonyl-1-heptene]
kobs /[I]* (approximate second-order inactivation constant) ([1]; 25° C., pH 6.2): 2,000 M^-1 sec^-1
kobs /[I]* (approximate second-order inactivation constant) (Cloned cathepsin S; 25° C., pH 6.5): 10,700 M^-1 sec^-1

Br.CCOC(=O)/C=C/[C@H](CCCCN)NC(=O)[C@H](Cc1ccccc1)NC(=O)N1CCOCC1 [Mu-Phe-LysVEOEt.HBr, (S)-(E)-Ethyl 8-amino-4-(4-morpholinecarbonylphenylalanyl)amino-2octenoate hydrobromide]
kobs /[I]* (approximate second-order inactivation constant) ([1]; 25° C., pH 6.2): 650 M⁻¹ s⁻¹
kirr [2]: 0.085 s⁻¹
Ki [2]: 24.2 µM
k/KI (kirr/KI) [2]: 3500 M⁻¹ s⁻¹

(S)-(E)-3-(4-morpholinecarbonyl-2-naphthylalanyl)amino-5-phenyl-1-phenylsulfonyl-1-pentene [Mu-Np-HphVSPh]
kobs /[I]* (approximate second-order inactivation constant) ([1]; 25° C., pH 6.2): 86,000 M^-1 sec^-1
k/KI (kirr/KI) (cruzain, from T. cruzi; values without asterisk): 218,000 M^-1 sec^-1
kobs /[I]* (approximate second-order inactivation constant) [2]: 1,000,000 M^-1 sec^-1

(S)-(E)-3-(4-morpholinecarbonylphenylalanyl)amino-1-(4-bromophenylsulfonyl)-5-phenyl-1-pentene [Mu-Phe-HphVSPhBr]
kobs /[I]* (approximate second-order inactivation constant) ([1]; 25° C., pH 6.2): 15,500 M^-1 sec^-1

(S)-(E)-Ethyl8-(benzyloxycarbonyl)amino-4-(4-morpholinecarbonylphenylalanyl)amino-2-octenoate [Mu-Phe-Lys(Z)VEOEt]
kirr [1]: 0.13 s⁻¹
Ki ([1]; corrected for substrate): 32 µM
k/KI (kirr/KI) ([1]; values without asterisk, 25° C., pH 6.2): 4100 M⁻¹ s⁻¹
kirr [2]: 0.87 s⁻¹
Ki [2]: 6.2 µM
k/KI (kirr/KI) [2]: 13,900 M^-1 sec^-1
kirr (Cloned cathepsin S): 0.13 s⁻¹
Ki (Cloned cathepsin S; corrected for substrate): 1.3 µM
k/KI (kirr/KI) (Cloned cathepsin S; values without asterisk, 25° C., pH 6.5): 100,000 M^-1 sec^-1

Boc-phenylalanyl-homophenylalanyl-p-nitrostyryl
kobs /[I]* (approximate second-order inactivation constant) (Cloned cathepsin S; 25° C., pH 6.5): 40,100 M^-1 sec^-1

— patent US6287840A (Axys Pharmaceuticals, Inc., priority 1999, dated 2001)
